Biological target: T1, human PTP1B (Homo sapiens, UniProt P18031)
T1 construct: but without the carboxy-terminal hydrophobic region (corresponding to 1-299 aa); made in house; host or cells: Sf9 insect cells (Spodoptera frugiperda), Bac-to-Bac baculovirus system
T1 sequence (P18031 1-299): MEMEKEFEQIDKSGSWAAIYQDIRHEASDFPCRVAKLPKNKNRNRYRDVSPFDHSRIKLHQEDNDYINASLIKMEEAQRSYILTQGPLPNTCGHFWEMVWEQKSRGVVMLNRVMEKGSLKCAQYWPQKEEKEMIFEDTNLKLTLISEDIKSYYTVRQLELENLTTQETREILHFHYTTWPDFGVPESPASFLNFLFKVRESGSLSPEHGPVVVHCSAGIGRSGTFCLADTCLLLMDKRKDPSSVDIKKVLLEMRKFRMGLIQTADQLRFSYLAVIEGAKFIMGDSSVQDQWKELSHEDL
Assay: PTP Assay PTP1B DiFMUP (enzymatic test for inhibition of a phosphatase)
Assay type: biochemical
Conditions: recombinant hPTP1B (aa 1-299, expressed in Sf9 cells); substrate DiFMUP per table head; read-out: IC-50 (μM) PTP Assay PTP1B DiFMUP

SMILES: O=C(O)c1cc(-c2csc(Nc3ccc(-c4ccccc4)cc3)n2)ccc1O [Example 17]
- IC50: 0.7 µM
